This note sets out measurements from PubChem BioAssay (NCI).

Test in all cases: inhibition of tumour cell growth, NCI panel, 48 h
Experiment [1] deals with M14 melanoma.
Experiment [2] has as its system MDA-MB-231 breast.
The subject of experiment [3] is MOLT-4 leukemia.
Experiment [4] has as its system NCI-H460 lung.
Experiment [5] deals with SK-MEL-28 melanoma.
For experiment [6], the system named is SK-MEL-5 melanoma.
The test system of experiment [7] is SN12C renal.
The test system of experiment [8] is SNB-75 CNS.
In experiment [9] the test system is UO-31 renal.
Experiment [10] relates to HCT-116 colon.

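All cell lines were grown in 96-well plates and treated with compound for 48 hours. TGI: concentration producing complete growth inhibition.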

With `COc1ccc(NCc2cnc3nc(N)nc(N)c3c2C)cc1`, the TGI was over 100 µM in experiment [1]; 0.962 µM in experiment [2]; over 100 µM in experiment [3]; over 100 µM in experiment [4]; over 100 µM in [5]; over 100 µM in experiment [6]. For the same molecule, the TGI in experiment [7], in experiment [8] and in experiment [9] was over 100 µM in each case.

`CC(C)=CCCC1(Sc2ccccc2)C(=O)OCC1C=C(C)C` (configuration not stated): the TGI in [10] was 45.8 µM; in experiment [1] it was 52.1 µM; in experiment [2] it was over 100 µM; in experiment [3] it was 20.4 µM; in experiment [4] it was over 100 µM; in [5] it was over 100 µM. For the same molecule, the TGI in experiment [6] is 36.7 µM; in experiment [7], 46.1 µM; in experiment [8], over 100 µM; in experiment [9] it was over 100 µM.

For `CC1CC(=O)Nc2ccc(N=NN(C)C)cc2N1C=O` (configuration not stated), the TGI in experiment [10], in [1], in experiment [2], in experiment [3], in [4] and in [5] was over 100 µM in each case. Further, the TGI in experiment [6], in experiment [7], in experiment [8] and in [9] was over 100 µM in each case.

Consider `COc1cc2c(cc1OC(=O)c1cc3ccccc3[nH]1)N=C[C@@H]1CCCN1C2=O`, for which the TGI in experiment [10] amounted to 3.19 µM; in [1], 0.387 µM; in [2] it was 2.88 µM; in experiment [3], 0.553 µM; in experiment [4], 8.65 µM; in experiment [5], 2.21 µM. The figures for the TGI in experiment [6], in experiment [7] and in experiment [8] were 0.335 µM, 0.513 µM and 7.02 µM, respectively.

Turning to `CCC/C(Cl)=N\OC(=O)Nc1ccc(F)c([N+](=O)[O-])c1`, the TGI in experiment [10] is over 100 µM; in [1], 30.4 µM; in experiment [2], 36.8 µM; in experiment [3], 11.2 µM; in experiment [4] it was 34.9 µM; in experiment [5] it was 34.2 µM. The TGI was 35.2 µM in [6], 72.2 µM in experiment [7], 33 µM in experiment [8] and 26.6 µM in [9].

With `CCOC(=O)C1C[C@H]2CO[C@H](c3ccccc3)N2C1=O` (some centres not stated), the TGI in [10], in experiment [1], in [2], in experiment [3], in experiment [4] and in experiment [5] was over 100 µM throughout. The TGI in [6], in experiment [7], in experiment [8] and in experiment [9] was over 100 µM each time.

In the case of `O=C(Cc1ccccc1)N=Nc1c(O)[nH]c2ccccc12`, the TGI in [10], in experiment [1], in experiment [2], in [3], in experiment [4] and in experiment [6] was over 100 µM in each case. Also, the TGI in experiment [7], in experiment [8] and in experiment [9] was over 100 µM throughout.

For `CCOC(=O)C1=CC(C)(C(=O)OCC)Nc2c(nc(SC)n(C)c2=O)N1` (configuration not stated), the TGI in [10], in experiment [1], in experiment [2], in experiment [3], in experiment [4] and in experiment [5] was over 10 µM throughout. For the same molecule, the TGI in experiment [6], in experiment [7], in experiment [8] and in [9] was over 10 µM in each case.

For the molecule `CC1=Nc2c(C#N)ncn2N=C(C)C1`, the TGI in [10], in [1], in experiment [2], in experiment [3], in [4] and in experiment [5] was over 100 µM throughout. Moreover, the TGI in experiment [6], in [7], in experiment [8] and in experiment [9] was over 100 µM each time.

As to `C=CC[C@@H]1C=C[C@@H](C(=O)OC)n2c(=O)n(-c3ccccc3)c(=O)n21`, the TGI in experiment [10], in experiment [1], in [2], in experiment [3], in experiment [5] and in experiment [6] was over 100 µM each time. In addition, the TGI in [7], in experiment [8] and in experiment [9] was over 100 µM in each case.

As to `CC1(C)O[C@H]2OC(CO)C(OS(C)(=O)=O)[C@H]2O1` (some centres not stated), the TGI in experiment [10], in experiment [1], in experiment [2], in experiment [4], in experiment [5] and in experiment [6] was over 100 µM each time. The TGI in [7], in [8] and in experiment [9] was over 100 µM throughout.

On to `COc1ccc(N2C(N)=C(C#N)C(C#N)(C#N)C2c2cccc([N+](=O)[O-])c2)cc1` (configuration not stated), for which the TGI was found to be 23.8 µM in [10]; 35.6 µM in experiment [1]; 29.1 µM in experiment [2]; 25.7 µM in experiment [3]; 23.6 µM in experiment [5]; 27.4 µM in experiment [6]. In addition, the TGI in [7] turned out to be 30.8 µM; in [8] it was 35.1 µM; in experiment [9], 31.3 µM.

As for `CN(C)CCCNc1cnc2cc3ccccc3cc2n1`, the TGI in experiment [10] is 99.3 µM; in experiment [1], 50.5 µM; in [2], 41.4 µM; in experiment [3] it was 81.7 µM; in experiment [4], over 100 µM; in experiment [5], 81.5 µM. The results for the TGI in experiment [6], in experiment [7] and in experiment [8] were 45 µM, over 100 µM and 70.6 µM, respectively.

For the molecule `Cc1cc2c(c(C(=O)NCCC(=O)N[C@@H](C)C(=O)OCc3ccccc3)c1)Oc1c(cc(C)cc1C(=O)NCCC(=O)N[C@@H](C)C(=O)OCc1ccccc1)S2`, the TGI in experiment [10], in [1], in experiment [2], in [3], in experiment [4] and in [6] was over 100 µM each time. Further, the TGI in experiment [7], in experiment [8] and in [9] was over 100 µM each time.
